Tests used:
[1] = target: TMPRSS2 (Homo sapiens, UniProt O15393); details: HeLa-ACE2 cells, 120 μM
Experimental: HeLa-ACE2 cells were transiently transfected with empty vector (V) or increasing cDNA ratios of V5-tagged WT spike protein to TMPRSS2 (spike-V5:TMPRSS2) as indicated and 24 h later incubated for an additional 24 h in serum-free media containing 120 μM Camostat (+) or control DMSO (−) (FIG. 12A). Immunoblot of the 24 h conditioned media (concentrated 10-fold) was first probed for S1 and S1′ using an antibody against S1-subunit (GTX135356), stripped and next probed for sACE2 (ab108252) and mature TMPRSS2m (14437-1-AP) (upper panel). Cell lysates were immunoblotted for spike protein (V5-mAb), ACE2 (ab108252) and β-Actin (lower panel). HeLa-ACE2 cells were transiently transfected for 48 h with empty vector (V), TMPRSS2, and V5-tagged spike protein (S) alone or in combination with TMPRSS2 (S+TMPRSS2) in a ratio of 1:0.7 (FIG. 12B). For each condition, 1 ml of 24h serum free conditioned media was immunoprecipitated with 2 μg goat polyclonal ACE2 antibody (AF933, R&D) and 60 μl TrueBlot anti-goat Ig IP beads (00-8844-25; Rockland) and analyzed by western blot first for S1 and S1′ (GTX135356) and next for sACE2 (rabbit MAB; ab108252) (upper right panels). For reference, 50% of the media before immunoprecipitation (concentrated 10-fold) (input) was similarly analyzed (upper left panels). Immunoblots of the cell lysates (spike protein: V5-mAb) are also shown (lower panels).
To confirm that S2a, and S2b are generated by TMPRSS2 activity in the ER, HeLa-ACE2 cells were incubated with 120 μM Camostat, known to inhibit TMPRSS2.

[2] = test system: SARS-CoV-2; test: microbe, parasite or virus in culture; assay type: cell-based

Sequence of TMPRSS2 (O15393 whole entry): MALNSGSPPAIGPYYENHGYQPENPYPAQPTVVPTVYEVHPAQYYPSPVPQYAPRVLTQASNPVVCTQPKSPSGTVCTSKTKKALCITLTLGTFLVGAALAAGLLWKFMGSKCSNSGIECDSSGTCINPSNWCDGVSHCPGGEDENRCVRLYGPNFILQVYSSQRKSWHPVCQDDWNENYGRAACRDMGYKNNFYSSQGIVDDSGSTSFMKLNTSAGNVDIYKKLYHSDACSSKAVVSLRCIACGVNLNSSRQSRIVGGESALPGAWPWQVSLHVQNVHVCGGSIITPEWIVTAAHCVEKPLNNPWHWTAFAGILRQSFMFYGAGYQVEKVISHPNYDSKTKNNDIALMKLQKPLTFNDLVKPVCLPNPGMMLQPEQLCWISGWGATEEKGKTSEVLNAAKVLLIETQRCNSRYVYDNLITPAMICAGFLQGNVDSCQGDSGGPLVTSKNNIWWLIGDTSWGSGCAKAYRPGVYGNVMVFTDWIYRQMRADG

CN(C)C(=O)COC(=O)Cc1ccc(OC(=O)c2ccc(NC(=N)N)cc2)cc1 [Camostat]
Generation of S1′ [1]: in large part
Generation of sACE2 [1]: inhibited
Formation of S2a and S2b ([1]; increasing TMPRSS2): prevented
Viral replication, inhibitors individually [2]: meaningfully reduce viral replication
